Experimental data published in patent publication US8906925B2, “Pyrido[4,3-B]indoles containing rigid moieties” (Medivation Technologies, Inc., priority 2008, dated 2014).
Like-named read-outs stand apart in the source and are kept apart here.

Columns and labels:
[1] = target: T1, human recombinant serotonin (5-Hydroxytryptamine) 5-HT2B receptor (Homo sapiens, UniProt P41595); test: Serotonin 5-HT2B radioligand binding ([3H]LSD); details: for inhibition at 0.1 µM: compound at 0.1 μM; for inhibition at 0.1 µM / inhibition at 1 µM: read-out: Inhibition of ligand binding, Serotonin 5-HT2B (percent inhibition of specific binding)
T1 construct: expressed in transfected cells; host or cells: Chinese hamster ovary (CHO-K1) cells
T1 sequence (P41595 whole entry): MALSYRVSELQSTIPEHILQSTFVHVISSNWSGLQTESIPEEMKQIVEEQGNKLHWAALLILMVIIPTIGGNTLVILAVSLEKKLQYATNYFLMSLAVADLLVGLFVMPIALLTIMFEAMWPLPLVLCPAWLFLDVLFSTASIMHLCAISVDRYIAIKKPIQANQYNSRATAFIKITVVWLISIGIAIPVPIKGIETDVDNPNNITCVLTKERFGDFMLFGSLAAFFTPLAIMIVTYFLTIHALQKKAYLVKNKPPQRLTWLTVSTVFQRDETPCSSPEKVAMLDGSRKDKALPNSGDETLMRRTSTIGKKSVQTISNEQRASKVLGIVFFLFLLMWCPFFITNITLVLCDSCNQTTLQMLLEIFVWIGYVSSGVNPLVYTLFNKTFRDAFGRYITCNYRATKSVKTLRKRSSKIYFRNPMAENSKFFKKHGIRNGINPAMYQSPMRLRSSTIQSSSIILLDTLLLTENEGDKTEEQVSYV
Protocol: Compounds of invention were incubated with 1.2 nM [^3H]Lysergic acid diethylamide (LSD) for 60 min. at 37° C. […] Receptor proteins were filtered and washed, the filters were then counted to determine [^3H]LSD specifically bound. Compounds were screened at 1 μM or lower, using 1% DMSO as vehicle. Compounds of the invention were tested in this biochemical assay and percent inhibition of specific binding was determined. Biochemical assay results are presented as the percent inhibition of specific binding in Table 10.

[2] = target: T2, rat adrenergic α1A receptor (Rattus norvegicus, UniProt P43140); test: Adrenergic α1A radioligand binding ([3H]Prozosin); details: compound at 1 μM
T2 construct: from tissue; host or cells: Wistar rat submaxillary glands
T2 sequence (P43140 1-466): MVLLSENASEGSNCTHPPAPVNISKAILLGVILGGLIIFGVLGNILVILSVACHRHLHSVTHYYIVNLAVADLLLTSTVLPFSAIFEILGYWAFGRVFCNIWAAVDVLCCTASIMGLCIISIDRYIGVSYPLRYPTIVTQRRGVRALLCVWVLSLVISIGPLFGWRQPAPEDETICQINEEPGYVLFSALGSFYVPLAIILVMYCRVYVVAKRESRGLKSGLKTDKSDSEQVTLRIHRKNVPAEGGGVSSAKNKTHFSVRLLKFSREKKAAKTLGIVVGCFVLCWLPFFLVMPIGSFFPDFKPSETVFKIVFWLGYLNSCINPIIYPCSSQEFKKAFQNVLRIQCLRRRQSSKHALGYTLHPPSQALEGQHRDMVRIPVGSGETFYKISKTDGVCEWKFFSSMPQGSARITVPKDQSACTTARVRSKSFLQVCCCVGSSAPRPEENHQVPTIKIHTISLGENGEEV
Protocol: (§1) To evaluate in radioligand binding assays the activity of compounds of the invention, rat adrenergic α1A receptor obtained from Wistar Rat submaxillary glands (Michel, A. D. et al., Br. J. Pharmacol. 98:883, 1989) in a modified Tris-HCl buffer (50 mM Tris-HCl buffer, pH 7.4, 0.5 mM EDTA) was used. Compounds of the invention were incubated with 0.25 nM [^3H]Prozosin for 60 min. at 25° C. Non-specific binding was estimated in the presence of 10 μM phentolamine. Receptor proteins were filtered and washed, the filters were then counted to determine [^3H]Prozosin specifically bound. Compounds of the invention were screened at 1 μM or lower, using 1% DMSO as vehicle. Compounds of the invention were tested in this biochemical assay and percent inhibition of specific binding was determined.

[3] = target: T3, human recombinant serotonin (5-Hydroxytryptamine) 5-HT5A receptor (Homo sapiens, UniProt P47898); test: Serotonin 5-HT5A radioligand binding ([3H]LSD)
T3 construct: expressed in transfected cells; host or cells: Chinese hamster ovary (CHO-K1) cells
T3 sequence (P47898 whole entry): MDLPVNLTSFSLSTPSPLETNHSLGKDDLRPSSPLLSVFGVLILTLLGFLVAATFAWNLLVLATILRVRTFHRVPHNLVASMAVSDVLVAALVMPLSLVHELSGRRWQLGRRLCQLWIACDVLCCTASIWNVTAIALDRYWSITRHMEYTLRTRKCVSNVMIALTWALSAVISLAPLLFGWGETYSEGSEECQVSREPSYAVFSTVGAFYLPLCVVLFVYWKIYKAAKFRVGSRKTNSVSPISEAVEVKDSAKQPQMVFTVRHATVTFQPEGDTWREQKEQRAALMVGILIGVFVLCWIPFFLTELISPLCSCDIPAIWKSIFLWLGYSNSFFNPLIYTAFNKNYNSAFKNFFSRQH
Protocol: Compounds of the invention are incubated with 1.7 nM [^3H]Lysergic acid diethylamide (LSD) for 60 min. at 37° C. […] Receptor proteins are filtered and washed, the filters are counted to determine [^3H]LSD specifically bound. Compounds are screened at 1 μM or lower, using 1% DMSO as vehicle. Compounds of the invention are tested in this biochemical assay and percent inhibition of specific binding is determined.

[4] = target: T4, rat adrenergic α1B receptor (Rattus norvegicus, UniProt P15823); test: Adrenergic α1B radioligand binding ([3H]Prozosin); details: compound at 1 μM
T4 construct: from tissue; host or cells: Wistar rat liver
T4 sequence (P15823 1-515): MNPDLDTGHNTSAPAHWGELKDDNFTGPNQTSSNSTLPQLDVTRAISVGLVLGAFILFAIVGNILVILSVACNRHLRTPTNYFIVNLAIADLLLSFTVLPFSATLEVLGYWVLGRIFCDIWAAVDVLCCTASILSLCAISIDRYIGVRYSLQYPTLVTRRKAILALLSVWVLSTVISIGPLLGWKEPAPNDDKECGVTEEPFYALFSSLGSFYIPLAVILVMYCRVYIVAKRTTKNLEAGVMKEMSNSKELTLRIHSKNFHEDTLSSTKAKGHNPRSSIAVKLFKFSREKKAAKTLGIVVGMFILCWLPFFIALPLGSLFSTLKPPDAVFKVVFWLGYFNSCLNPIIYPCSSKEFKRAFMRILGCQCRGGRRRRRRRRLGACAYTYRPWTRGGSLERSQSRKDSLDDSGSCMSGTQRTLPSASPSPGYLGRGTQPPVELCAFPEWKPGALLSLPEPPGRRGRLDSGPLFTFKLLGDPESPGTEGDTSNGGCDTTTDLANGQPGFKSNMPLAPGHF
Protocol: as §1, with “rat adrenergic α1B receptor obtained” for “rat adrenergic α1A receptor obtained”, “Wistar Rat liver (Garcia-S'ainz, J. A. et al., Biochem. Biophys. Res. Commun. 186:760, 1992; Michel A. D.” for “Wistar Rat submaxillary glands (Michel, A. D.”, “bound. Compounds were screened” for “bound. Compounds of the invention were screened”

[5] = percent inhibition of specific binding, 1 µM
[6] = percent inhibition of specific binding, read-out: Inhibition of ligand binding, Adrenergic α1A
[7] = compound at 1 μM, read-out: Inhibition of ligand binding, Serotonin 5-HT5A (percent inhibition of specific binding)
[8] = percent inhibition of specific binding, read-out: Inhibition of ligand binding, Adrenergic α1B

Compound | inhibition at 0.1 µM [1] [%] | Inhibition of ligand binding, Serotonin 5-HT2B (percent inhibition of specific binding) ([1]; compound at 1 μM, 1 µM) [%] | inhibition at 1 µM ([1]; compound at 1 μM) [%] | Inhibition of ligand binding, Adrenergic α1A [2, 5] [%] | inhibition at 1 µM [2, 6] [%] | inhibition at 0.1 µM ([3]; compound at 0.1 μM, read-out: Inhibition of ligand binding, Serotonin 5-HT5A (percent inhibition of specific binding)) [%] | Inhibition of ligand binding, Serotonin 5-HT5A (percent inhibition of specific binding) ([3]; compound at 1 μM, 1 µM) [%] | inhibition at 1 µM [3, 7] [%] | Inhibition of ligand binding, Adrenergic α1B [4, 5] [%] | inhibition at 1 µM [4, 8] [%] | inhibition at 1 µM ([2]; read-out: Inhibition of ligand binding, Adrenergic α1A (percent inhibition of specific binding)) [%] | inhibition at 1 µM ([4]; read-out: Inhibition of ligand binding, Adrenergic α1B (percent inhibition of specific binding)) [%]
Cc1ccc(C(O)Cn2c3c(c4cc(C)ccc42)CN(C)CC3)cc1 (racemic) [Compound 43, racemic-2-(1,2,3,4-tetrahydro-2,8-dimethylpyrido[4,3-b]indol-5-yl)-1-p-tolylethanol] | -2 | 77 | 70 | 96 | 90 | 19 | 73 | 61 | 96 | 97 | – | –
CCN1CCc2c(c3ccccc3n2CC(O)c2ccc(C)cc2)C1 (racemic) [Compound 44, racemic-2-(2-ethyl-1,2,3,4-tetrahydropyrido[4,3-b]indol-5-yl)-1-p-tolylethanol] | – | – | 11 | – | 39 | – | – | 0 | – | 38 | – | –
CCN1CCc2c(c3cc(C)ccc3n2CC(O)c2ccc(C)cc2)C1 (racemic) [Compound 51, racemic-2-(2-ethyl-1,2,3,4-tetrahydro-8-methylpyrido[4,3-b]indol-5-yl)-1-p-tolylethanol] | 12 | – | 32 | – | 86 | – | – | 27 | – | 95 | – | –
Cc1ccc(C(O)Cn2c3c(c4ccccc42)CN(C)CC3)cc1 (racemic) [Compound 53, racemic-2-(1,2,3,4-tetrahydro-2-methylpyrido[4,3-b]indol-5-yl)-1-p-tolylethanol] | – | – | 23 | – | 74 | – | – | 26 | – | 66 | – | –
C/C(=C\n1c2c(c3cc(Cl)ccc31)CN(C)CC2)c1ccc(F)cc1 [Compound 83, (E)-8-chloro-5-(2-(4-fluorophenyl)prop-1-enyl)-2,3,4,5-tetrahydro-2-methyl-1H-pyrido[4,3-b]indole] | – | – | 88 | – | 90 | – | – | 97 | – | 96 | – | –
Cc1ccc2c(c1)c1c(n2CC#Cc2ccccn2)CCN(C)C1 [Compound No. 500, 2,3,4,5-tetrahydro-2,8-dimethyl-5-(3-(pyridin-2-yl)prop-2-ynyl)-1H-pyrido[4,3-b]indole] | – | – | 34 | – | – | – | – | 23 | – | – | 27 | 27
